# Entries after “also recorded” stand apart in the source; their conditions may differ.
# Test system: mesenchyme and epithelium of fetal lung explants
# Test: Apoptosis in lung explants by H/E histology (picnotic nuclei)
# Assay type: cell-based, mouse
# Procedure: The (fetal) murine lung explant culture was generated according to our standard protocol. Briefly, complete lungs or individually dissected lung lobes were isolated from fetal mice and cultured for one to five days in a hanging drop culture system. The Wnt3a polypeptide was administered to the culture medium in different concentrations, ranging from 0 to 4000 ng/ml. The effect of this treatment was monitored by stereomicroscopy. The lung explant cultures were subsequently fixed for 30 minutes in 10% paraformaldehyde (PFA), 30 minutes in 2% PFA and 30 minutes in 4% PFA. After fixation, the lung explants were dehydrated through an increasing series of 2-isopropanol and subsequently embedded in paraffin. For the histological analysis, 4 μm thick sections were cut and stained with Hematoxilin and Eosin using standard techniques.
# In order to determine the concentration range in which the Wnt3a polypeptide is effective, total lung explants were cultured in the presence of Wnt3a in a range of 0 ng/ml, 500 ng/ml, 750 ng/ml, 1000 ng/ml, 2000 ng/ml and 4000 ng/ml (FIG. 2, Panels A-R).
# After two days of culture, these lung explants were fixed and embedded in paraffin for immunohistological analysis.
# To more exactly determine the concentration of Wnt3a that is effective upon lung development, differentiation and apoptosis, fetal lung explants were cultured for a longer period (four days) in the presence of lower concentrations of Wnt3a, i.e., 0 ng/ml, 4 ng/ml, 20 ng/ml, 100 ng/ml and 500 ng/ml (FIG. 4, Panels A-O).
substance,measurement,setting,value
Wnt3a,apoptosis in the epithelium,"750 ng/ml, two days",no sign of apoptosis whatsoever
same,apoptosis in the mesenchyme,"750 ng/ml, two days",clearly detectable but not yet abundant
same,apoptosis in the epithelium,"1000 ng/ml, five days",contained no apoptotic cells
same,apoptosis in the mesenchyme,"1000 ng/ml, five days",most of the mesenchymal cells surrounding the epithelium displayed picnotic nuclei; also recorded: massive induction of apoptosis in the mesenchyme
same,apoptosis in the epithelium,"1000 ng/ml, two days",not detectable
same,apoptosis in the epithelium,"between 100 and 500 ng/ml, four days",no sign of apoptosis could be detected
same,concentration at which apoptosis in the epithelium is induced,conclusion,higher than 1000 ng/ml
same,concentration at which apoptosis in the mesenchyme is induced,conclusion,greater than 100 ng/ml

# From patent publication US20100203634A1, “Inhibition of stem cell differentiation, enhancement of proliferation and selective induction of apoptosis by Wnt factors” (DeltaCell B.V., priority 2003, published 2010)
